In patent publication US9560848B2, “Method and compositions for biofouling deterrence” (Clemson University, priority 2008, dated 2017):

How the values were obtained:
Oyster larvae [1] = experiment: Treatment of oyster larvae with micromolar concentrations of noradrenalin; format: in vivo
Excerpt: Effect of Treatment of Oyster Larvae with Micromolar Concentrations of Noradrenalin

[2] = test system: cyprids of the barnacle Balanus amphitrite; format: in vivo
Protocol: Barnacle cyprids were challenged with 30-100 micro molar ranges of noradrenalin. Barnacle cyprids were monitored and assayed over period of 120 hours (5 days). Cyprid metamorphosis was imaged at 24, 48, 96, 120 hour intervals. Images were taken at each intervals and samples preserved for SEM analysis. On the last day of the experiments the metamorphosed barnacles were assayed for viability. The experiments were repeated 4 times with 3 replicates per experiment. […] Post NA treatment, either by flash induction or by incubating the cyprids in ASW containing NA. […] The onset of ecdysis was observed between 24 hr and 48 hr post NA treatment. Metamorphosing juvenile barnacles were seen encased in bivalve cyprid carapace. The pumping action of the thorax similar to beating of cirri was also observed (Glenner and Høeg 1993). […] Some ecdysing barnacles were still encased in cyprid carapaces while others had shed the bivalve carapace. The cyprids that had shed carapace were presumed to have ‘grown’ out of it as opposed to have shed carapace voluntarily as observed in untreated attached cyprids (Glenner and Høeg 1993). […] Ninety-six hours post NA treatment, the operculum with tergal and scutal plates is well demarcated from the wall plates. In contrast, control barnacles can be seen fully calcified with well recognizable wall and opercular shell plates at around 24-48 hr post settlement. Thus the NA treated cyprids took 96 hr to fully metamorphose and calcify but remained unattached and un-cemented to the substratum.
Exploration of surfaces by invertebrate larvae is an important step leading to attachment and metamorphosis into juveniles. Oyster pediveliger larvae and barnacle cyprid larvae investigate surfaces using exploratory structures bearing an array of sensory cells. The effect of the neurotransmitter noradrenaline (NA) was investigated on the cyprids of the barnacle Balanus amphitrite. 1 day old cyprids were challenged with micro-molar concentrations of NA ranging from […] and assayed over 5 days. […] Remnants of cyprid organs such as the antennules were clearly visible in metamorphosed juveniles. […] Cyprids are compared to oyster larvae to understand the effects of NA on the signal transduction cascades involved in larval settlement and to explore NAs potential as a natural fouling deterrent. Materials and Methods One day old cypris larvae of the B. amphitrite were challenged with […] of noradrenaline. Cyprids were challenged in two different ways. One group was flash challenged for 3 hours then washed with artificial sea water (ASW) and incubated in ASW free of NA for the remaining duration of the experiment. The second group was incubated with NA for 24 hours then washed and incubated in ASW for the remaining duration of the experiment. Barnacle cyprids were monitored and assayed over period of 120 hours (5 days). Cyprid metamorphosis was imaged at 24, 48, 96, 120 hour intervals. Images were taken at each intervals and samples preserved for SEM analysis. The cyprid larvae were imaged using, Zeiss discovery V12 stereo-microscope, Nikon AZ100 stereo-macrosope and the Hitachi-4800 field emission scanning electron microscope. On the last day of the experiments the metamorphosed barnacles were assayed for viability. Viability was ascertained by observing the movement of cirri and ability of the metamorphosed barnacles to feed normally. The experiments were repeated 4 times with 3 replicates per experiment.

Oyster larvae [3] = conditions: Coon, Bonar et al 1986; cited from earlier work

NCC(O)c1ccc(O)c(O)c1 (racemic) [NA, DL-noradrenaline]
metamorphosis of treated oyster larvae (Oyster larvae [1]): metamorphose into adult oysters without cementation
settling behavior and cementation of oyster larvae (Oyster larvae [1]): complete disruption of the settling behavior and cementation
viability and development of treated oysters (Oyster larvae [1]): viable and develop normally into adults
metamorphosis of treated cyprids ([2]; 30-100 micro molar NA): metamorphosed into adults
settling, attachment or cementation of cyprids ([2]; 30-100 micro molar NA, flash challenge 3 hours or 24 hours incubation, monitored 120 hours, listed as noradrenalin): prevented them from settling or attaching to a surface
time to fully metamorphose and calcify ([2]; NA treated cyprids, controls 24-48 hr post settlement): 96 h
swimming of cyprids post NA treatment ([2]; flash induction or incubation in ASW containing NA): stopped swimming and sank to the bottom
appearance of juvenile barnacles compared to controls ([2]; in vivo): appeared to be normal
onset of ecdysis post NA treatment ([2]; post NA treatment): 24 to 48 h
swimming of NA treated oyster larvae (Oyster larvae [3]): stopped swimming and sank to the bottom of petri dishes
